Assay results reported in patent US12059397B2 (METIMEDI PHARMACEUTICALS CO., LTD., priority 2016, dated 2024).

Experiments:
[1] = system: Human colorectal cancer cells; experiment: In vivo efficacy of long-acting formulation, flank xenograft; design: species or system Balb/c nude mice; settings: 2 mg/kg subcutaneously B.I.D. for 21 days; FIG. 8
Procedure: Human colorectal cancer cells (5×10^6) were transplanted to the flank of Balb/c nude mice. […] Group 2: […] Group 3: […] Group 4: […] Tumor volume was measured 3 times per week until the end of experiment and was recorded by calculating minimum (M) and maximum (L) linear size of the tumors (L×M^2/2). Tumor weight was measured after autopsy on the final day of experiment. Tumor mass was sectioned to 5 μm and then stained with hematoxylin and eosin for histological analysis.

cancer cells [2] = settings: in vivo; cited from earlier work
cancer cells [3] = settings: cited from earlier work
[4] = Stability of calcium lactate in water and acidic conditions; format: physicochemical
Excerpt: However, the drug is very unstable in water, especially under acidic conditions, and rapidly degraded. Therefore, it is difficult for this drug to show pharmaceutical efficacy with a general oral formulation because it is readily decomposed in the acidic environment of the stomach upon oral administration. Calcium lactate is also not absorbed when it reaches the large intestines because it is destroyed by enzymes present in the large intestine.

cancer cell lines = settings: cited from earlier work
HCT116 cells = experiment: In vivo liver metastasis after intra-splenic injection; design: species or system Mice; settings: subcutaneous injection twice a day for 3 weeks; FIG. 11
Procedure: Cells were maintained in RPMI-1640 medium (Welgene, Daegu, South Korea) supplemented with 10% fetal bovine serum (Welgene, Daegu, South Korea), 100 IU/ml penicillin, and 100 μg/ml streptomycin (Welgene, Daegu, South Korea) in a humidified atmosphere of 5% CO2, at 37° C. Calcium lactate (CaLa) was purchased from Sigma-Aldrich (St Louis, MO, USA).
Mice were anesthetized with a 2% isoflurane. 5×10^6 of HCT116 cells were suspended in the 100 μL phosphate buffered saline for one injection. A small left abdominal flank incision was made and the spleen was exteriorized for the intra-splenic injection. The prepared cells were injected into the spleen with a 30-gauge needle. To prevent tumor cell leakage and bleeding, a cotton swab was held over the site of injection for 1 min. The injected spleen was returned to the abdomen and the wound was sutured with 6-0 black silk.

## CC(O)C(=O)[O-].CC(O)C(=O)[O-].[Ca+2] (stereo not shown) [calcium lactate]
[1]
  tumor size versus control group: clearly smaller than the control group
Cancer cells [2]
  growth of cancer cells in animal models: suppressed
Cancer cells [3]
  levels of growth, metastasis (migration) and tube formation of the cancer cells: decreased
  levels of lactate, LDH-B, pyruvate, PDH and α-KG in cells: increased
  levels of β-catenin, PARP, HIF-1α and VEGF in cells: decreased
[4]
  stability in water, especially under acidic conditions: very unstable
Cancer cell lines; decreased amount of radiation
  anticancer effect in combination with conventional radiation: equivalent anticancer effect
Cancer cell lines; decreased concentration of the anticancer drugs
  anticancer effect in combination with well-known anticancer drugs: higher anticancer effect
HCT116 cells
  inflammatory response in developed tumor: induced
  liver metastasis as compared to the control: suppressed
